In patent publication US20250163119A1, “COMPOUNDS FOR THE TREATMENT OF DIABETES OR OBESITY” (Eli Lilly and Company, priority 2023, published 2025):
*1 amine or outer side, *2 acyl side, *3 side chain or, on linkers, in order; H or OH if unused. Where a SMILES comes first, the peptide text is derived from it. Bridges are numbered along the chain shown (N, C = ends). Roman numbers before positions name the chains, in order. Side-chain parts run from the residue outwards. [ ]: non-standard residue; d: D form. The star is where a group is joined. C20 diacid = O=C(O)CCCCCCCCCCCCCCCCCCC(=O)*; C18 diacid = O=C(O)CCCCCCCCCCCCCCCCC(=O)*; γGlu = O=C(O)[C@H](CCC(=O)[*:2])N[*:1]; εLys = N[C@@H](CCCCN[*:1])C(=O)[*:2]; pGlu = O=C1CC[C@@H](C(=O)O)N1; αMeL = CC(C)C[C@](C)(N)C(=O)O; AEEA = NCCOCCOCC(=O)O; Aib = CC(C)(N)C(=O)O

Key:
human CRHR2 = biological target: T1, human CRHR2 (Homo sapiens, UniProt Q13324); test: Human CRHR2 cAMP assay (HTRF) in HEK293 cells stably expressing human CRHR2; type: cell-based; conditions: HEK293 cells overexpressing human CRHR2; relative EC50, maximum 10 nM human UCN2; mean ± SE; read-out: hCRHR2 cAMP EC50 (pM, ± SE)
T1 construct: expressed in transfected cells
T1 sequence (Q13324 1-438 isoform Q13324-2): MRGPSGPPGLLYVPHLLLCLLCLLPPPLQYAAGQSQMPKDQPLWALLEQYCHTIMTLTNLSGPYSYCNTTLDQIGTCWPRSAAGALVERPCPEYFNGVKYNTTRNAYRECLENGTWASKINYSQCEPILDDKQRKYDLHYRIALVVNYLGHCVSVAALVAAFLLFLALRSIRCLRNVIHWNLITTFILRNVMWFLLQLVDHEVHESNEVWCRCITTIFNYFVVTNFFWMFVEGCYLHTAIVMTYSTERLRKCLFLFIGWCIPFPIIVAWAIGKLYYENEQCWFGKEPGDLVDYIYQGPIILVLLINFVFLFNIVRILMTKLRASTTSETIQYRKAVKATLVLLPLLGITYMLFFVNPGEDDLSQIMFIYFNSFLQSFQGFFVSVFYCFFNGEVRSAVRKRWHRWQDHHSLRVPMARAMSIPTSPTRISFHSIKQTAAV
Outline: (§1)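 Frozen stable HEK293-CRHR1 or -CRHR2 cells are thawed into IBMX-containing (0.25 mM) casein/HEPES pH 7.4 MEM buffer. Peptide dilution series (1:3) are added, then CRHR1 cells sit 1 h at 37° C and CRHR2 cells 30 min at room temperature. Intracellular cAMP is then measured by HTRF.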

human CRHR1 = biological target: T2, human CRHR1 (Homo sapiens, UniProt P34998); test: Human CRHR1 cAMP assay (HTRF) in HEK293 cells stably expressing human CRHR1; type: cell-based; conditions: HEK293 cells overexpressing human CRHR1; relative EC50, maximum 66 nM human UCN1; mean ± SE; read-out: hCRHR1 cAMP EC50 (pM, ± SE)
T2 construct: expressed in transfected cells
T2 sequence (P34998 24-415): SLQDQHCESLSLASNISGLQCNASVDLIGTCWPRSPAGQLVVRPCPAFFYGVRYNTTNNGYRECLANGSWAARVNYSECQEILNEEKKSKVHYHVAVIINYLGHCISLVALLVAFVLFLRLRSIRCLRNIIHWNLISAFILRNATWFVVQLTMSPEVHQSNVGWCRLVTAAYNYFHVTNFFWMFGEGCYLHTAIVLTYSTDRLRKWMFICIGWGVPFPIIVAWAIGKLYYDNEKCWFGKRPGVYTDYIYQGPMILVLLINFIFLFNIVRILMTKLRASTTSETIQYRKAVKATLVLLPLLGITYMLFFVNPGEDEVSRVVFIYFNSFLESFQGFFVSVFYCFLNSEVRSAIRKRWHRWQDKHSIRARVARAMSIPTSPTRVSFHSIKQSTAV
Outline: as §1

| EC50 (human CRHR2) [pM] | EC50 (human CRHR1) [pM] | Molecule |
| --- | --- | --- |
| 6.3 ± 2.1 | 1.1e+06 | CC[C@H](C)[C@H](NC(C)=O)C(=O)N[C@H](C(=O)N[C@H](C(=O)N[C@@H](CO)C(=O)N[C@@](C)(CC(C)C)C(=O)N[C@@H](CC(=O)O)C(=O)N[C@@H](C(=O)N1CCC[C@H]1C(=O)N[C@H](C(=O)NCC(=O)N[C@@](C)(CC(C)C)C(=O)N[C@@H](CC(C)C)C(=O)N[C@@H](CCC(N)=O)C(=O)N[C@H](C(=O)N[C@@H](CCCCN)C(=O)N[C@@H](CC(C)C)C(=O)N[C@@H](CCC(=O)O)C(=O)N[C@@H](CCC(N)=O)C(=O)N[C@@H](CCC(=O)O)C(=O)N[C@@H](CCCNC(=N)N)C(=O)N[C@@H](C)C(=O)N[C@@H](CCC(=O)O)C(=O)N[C@@H](CCCCN)C(=O)N[C@@H](C)C(=O)N[C@@H](CCCNC(=N)N)C(=O)N[C@@H](CCC(N)=O)C(=O)N[C@@H](CCC(N)=O)C(=O)N[C@@H](C)C(=O)N[C@@H](CCCCNC(=O)CC[C@H](NC(=O)CC[C@H](NC(=O)[C@@H](N)CCCCNC(=O)CCCCCCCCCCCCCCCCCCC(=O)O)C(=O)O)C(=O)O)C(=O)N[C@@H](CCC(=O)O)C(=O)N[C@@H](CC(N)=O)C(=O)N[C@H](C(=O)N[C@@H](CCC(=O)O)C(=O)N[C@H](C(=O)N[C@@H](CC(C)C)C(=O)N[C@@H](C)C(=O)N[C@@H](CCC(N)=O)C(=O)N[C@H](C(N)=O)C(C)C)[C@@H](C)CC)[C@@H](C)O)[C@@H](C)CC)[C@@H](C)O)C(C)C)[C@@H](C)O)C(C)C [SEQ ID NO: 38, Ac-IVTS αMeL D (D-Val) PTG αMeL LQIKLEQERAEKARQQAK(γE-γE-ϵK-CO-(CH2)18-CO2H)ENTEILAQV-NH2] (Ac-IVTS[αMeL]D[dV]PTG[αMeL]LQIKLEQERAEKARQQAK([γGlu-γGlu-εLys-C20 diacid])ENTEILAQV-NH2) |
| 15.5 ± 3.3 | > 1e+07 | I: Ac-GSPSIVTS[αMeL]DVPT[Aib][αMeL]LQKILEQERAEKARQQAKEAAEILAQV-NH2 / II: {C20 diacid-γGlu}-EKEKEK[AEEA] (amide I:33-II:C) [SEQ ID NO: 9, Ac-GSPSIVTS αMeL DVPT Aib αMeL LQKILEQERAEKARQQAK((2-[2-(2-Amino-ethoxy)-ethoxy]-acetyl)-KEKEKE-γE-CO-(CH2)18-CO2H)EAAEILAQV-NH2] |
| 7.9 ± 1.3 | > 1e+07 | CC[C@H](C)[C@H](NC(C)=O)C(=O)N[C@H](C(=O)N[C@H](C(=O)N[C@@H](CO)C(=O)N[C@@](C)(CC(C)C)C(=O)N[C@@H](CC(=O)O)C(=O)N[C@@H](C(=O)N1CCC[C@H]1C(=O)N[C@H](C(=O)NCC(=O)N[C@@](C)(CC(C)C)C(=O)N[C@@H](CC(C)C)C(=O)N[C@@H](CCC(N)=O)C(=O)N[C@H](C(=O)N[C@@H](CCCCN)C(=O)N[C@@H](CC(C)C)C(=O)N[C@@H](CCC(=O)O)C(=O)N[C@@H](CCC(N)=O)C(=O)N[C@@H](CCC(=O)O)C(=O)N[C@@H](CCCNC(=N)N)C(=O)N[C@@H](C)C(=O)N[C@@H](CCC(=O)O)C(=O)N[C@@H](CCCCN)C(=O)N[C@@H](C)C(=O)N[C@@H](CCCNC(=N)N)C(=O)N[C@@H](CCC(N)=O)C(=O)N[C@@H](CCC(N)=O)C(=O)N[C@@H](C)C(=O)N[C@@H](CCCCNC(=O)CNC(=O)[C@H](CCCCN)NC(=O)[C@H](CCC(=O)O)NC(=O)[C@H](CCCCN)NC(=O)[C@H](CCC(=O)O)NC(=O)[C@H](CCCCN)NC(=O)[C@H](CCC(=O)O)NC(=O)CC[C@H](NC(=O)CCCCCCCCCCCCCCCCCCC(=O)O)C(=O)O)C(=O)N[C@@H](CCC(=O)O)C(=O)N[C@@H](CC(N)=O)C(=O)N[C@H](C(=O)N[C@@H](CCC(=O)O)C(=O)N[C@H](C(=O)N[C@@H](CC(C)C)C(=O)N[C@@H](C)C(=O)N[C@@H](CCC(N)=O)C(=O)N[C@H](C(N)=O)C(C)C)[C@@H](C)CC)[C@@H](C)O)[C@@H](C)CC)[C@@H](C)O)C(C)C)[C@@H](C)O)C(C)C [SEQ ID NO: 43, Ac-IVTS αMeL D (D-Val) PTG αMeL LQIKLEQERAEKARQQAK(GKEKEKE-γE-CO-(CH2)18-CO2H)ENTEILAQV-NH2] |
| 21.7 ± 3.6 | > 1e+07 | [pGlu]GSPSGIVTS[αMeL]DVPT[Aib][αMeL]LQKILEQERAEKARQQAK([γGlu-AEEA-εLys-C18 diacid])EAAEILAQV-NH2 [SEQ ID NO: 24, Pyr-GSPSGIVTS αMeL DVPT Aib αMeL LQKILEQERAEKARQQAK(γE-(2-[2-(2-Amino-ethoxy)-ethoxy]-acetyl)-ϵK-CO-(CH2)16-CO2H)EAAEILAQV-NH2] |
| 10.9 ± 1.3 | > 1e+07 | Ac-GSPSIVTS[αMeL]DVPT[Aib][αMeL]LQKILEQERAEKARQQAK([γGlu-εLys-γGlu-εLys-C20 diacid])EAAEILAQV-NH2 [SEQ ID NO: 18, Ac-GSPSIVTS αMeL DVPT Aib αMeL LQKILEQERAEKARQQAK(γE-ϵK-γE-ϵK-CO-(CH2)18-CO2H)EAAEILAQV-NH2] |
| 18.3 ± 2.1 | > 1e+07 | Ac-GSPSIVTS[αMeL]DVPT[Aib][αMeL]LQKILEQERAEKARQQAK([AEEA-Pro-Lys-Glu-γGlu-C20 diacid])EAAEILAQV-NH2 [SEQ ID NO: 3, Ac-GSPSIVTS αMeL DVPT Aib αMeL LQKILEQERAEKARQQAK((2-[2-(2-Amino-ethoxy)-ethoxy]-acetyl)-PKE-γE-CO-(CH2)18-CO2H)EAAEILAQV-NH2] |
